Like-named read-outs stand apart in the source and are kept apart here.
Columns and labels:
[1] = aqueous buffer pH 7.0; cited from earlier work
[2] = Circular dichroism (CD) spectroscopy, α-helix content; assay type: physicochemical; conditions: based on [θ]222 and proposed formula, 50 mM phosphate buffer pH 7.4
Method: FIG. 11. CD spectra of the MVP-1 and DP178. The spectra were recorded with 10 uM of DP178 and 2.5 uM of MVP-1 in a phosphate buffer (50 mM, pH 7.4) at 23° C.
One application of the scaffolds is to induce special conformations of peptides. The circular dichroism (CD) spectra of the synthetic multivalent gp41 peptide (MVP-1) and peptide DP178 were recorded and compared (FIG. 11). It was shown that the multivalent assembling has a significant impact on the peptide conformation, leading to a great increase of the α-helical content for the peptide. […]
Similarly, we measured the circular dichroism (CD) spectra of the cholic acid-based multivalent peptides (36a and 37b). […]
The UV absorbance was run on Beckman DU 640 spectrophotometer. CD's spectrums were measured on Jasco-810 (CD-ORD) spectropolarimeter using quartz cuvette of 1 mm path length. […]
The samples of tetravalent peptide 26, trivalent peptides 36a and 37b, template 3α, 7α, 12α-tri-(6-Amino-3-thia-hexy-oxyl)-24-hydroxyl-5β-cholane 32, and the single peptide DP178 were prepared in a concentration ranging from 2 to 18 μM in 50 mM phosphate buffer (pH 7.4). The exact concentration of each sample was detected by UV spectrometer just prior to CD measurement. […]

[3] = Native gel filtration (aggregation); assay type: physicochemical; conditions: PBS, pH 7.2, 0.5 mM
Excerpt: Accordingly, the tetravalent gp41 peptides 25 and 26, each of which contains 4 strands of the 36-mer HIV-1 gp41 peptide DP178 (T20) were synthesized (FIG. 7). […] In order to ligate the peptide to the maleimide cluster, a cysteine residue was introduced at the C-terminus of the peptide during solid phase peptide synthesis.

HIV-1 = conditions: laboratory-adapted strains and primary isolates / different strains of HIV, cited from earlier work

enfuvirtide
concentration at which monomer/tetramer equilibrium and other aggregation patterns occur [1]: above 20 μM
concentration at which peptide is monomeric [1]: below 10 μM
content of α-helix [2]: 18%
aggregation under native gel filtration [3]: form aggregates
inhibition of HIV membrane fusion (HIV-1): potent and broadly inhibitory activities
inhibition of HIV membrane fusion (HIV-1; listed as T20): potently inhibit

From patent publication US7524821B2, “Scaffolded maleimide clusters for multivalent peptide assembly” (priority 2002, dated 2009)
